Results as given in patent US11739074B2, “Ras inhibitors” (Revolution Medicines, Inc., priority 2019, dated 2023).
pEC50, pIC50: −log10 of the molar value. Where two headings read alike, the source gives them in different places.

Tests used:
Assay type in all cases: cell-based
NCI-H358 (K-Ras G12C) = assay: CellTiter-Glo cell viability assay, H358; conditions: Homo sapiens, NCI-H358, 120 h
Experimental: Determination of Cell Viability in RAS Mutant Cancer Cell Lines
Protocol: CellTiter-Glo® Cell Viability Assay
Note—The following protocol describes a procedure for monitoring cell viability of K-Ras mutant cancer cell lines in response to a compound of the invention. Other RAS isoforms may be employed, though the number of cells to be seeded will vary based on cell line used.
Test compounds (132.5 nL) were directly dispensed into the assay plates containing cells. […] On day 5, assay plates and their contents were equilibrated to room temperature for approximately 30 minutes. […] Luminescence was measured using the PerkinElmer Enspire. Data were normalized by the following: (Sample signal/Avg. DMSO)*100. The data were fit using a four-parameter logistic fit.

AsPC-1 (K-Ras G12D) [1] = assay: CellTiter-Glo cell viability assay, AsPC-1; conditions: Homo sapiens, ASPC1, 120 h
In short: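 Luminescent viability readout on day 5, plates first brought to room temperature for ~30 min; compounds added straight to plated RAS-mutant cells. Values expressed as percent of mean DMSO signal, curves fitted with a four-parameter logistic model.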

AsPC-1 (K-Ras G12D) [2] = assay: Potency assay: pERK in AsPC-1 cells; conditions: Homo sapiens
[3] = read-out: H358 Cell Viability IC50, NCI-H358, K-Ras G12C, 5-day treatment
[4] = read-out: AsPC-1 Cell Viability IC50, AsPC-1, K-Ras G12D, 5-day treatment
[5] = ASPC1, read-out: pERK EC50 (AsPC-1 KRAS G12D)
[6] = NCI-H358, K-Ras G12C, 5-day treatment, read-out: H358 Cell Viability IC50
[7] = AsPC-1, K-Ras G12D, 5-day treatment, read-out: AsPC-1 Cell Viability IC50
[8] = ASPC1, AsPC-1 cells, K-Ras G12D, read-out: pERK EC50 (AsPC-1 KRAS G12D)

Row | SMILES | pIC50 (NCI-H358 (K-Ras G12C); [3]) | pIC50 (AsPC-1 (K-Ras G12D) [1]; [4]) | pEC50 (AsPC-1 (K-Ras G12D) [2]; [5]) | pIC50 (NCI-H358 (K-Ras G12C); [6]) | pIC50 (AsPC-1 (K-Ras G12D) [1]; [7]) | pEC50 (AsPC-1 (K-Ras G12D) [2]; [8])
1 | CCn1c(-c2cccnc2[C@H](C)OC)c2c3cc(ccc31)-c1cc(O)cc(c1)C[C@H](NC(=O)[C@H](C(C)C)N(C)C(=O)[C@H](C)N(C)C(=O)[C@H]1CN1)C(=O)N1CCC[C@H](N1)C(=O)OCC(C)(C)C2 [Compound 102] | 7.00 to 8.00 | 6.00 to 7.00 | > 5.30 | – | – | –
2 | CCn1c(-c2cnccc2COC)c2c3cc(ccc31)-c1cc(O)cc(c1)C[C@H](NC(=O)[C@H](C(C)C)N(C)C(=O)CN(C)C(=O)[C@@H]1N[C@@H]1C1CC1)C(=O)N1CCC[C@H](N1)C(=O)OCC(C)(C)C2 [Compound 103] | 6.00 to 7.00 | 6.00 to 7.00 | > 5.30 | – | – | –
3 | CCn1c(-c2cccnc2[C@H](C)OC)c2c3cc(ccc31)-c1cccc(c1)C[C@H](NC(=O)[C@H](C(C)C)N(C)C(=O)CN(C)C(=O)[C@H]1CN1)C(=O)N1CCC[C@H](N1)C(=O)OCC(C)(C)C2 [Compound 107] | 6.00 to 7.00 | 5.00 to 6.00 | > 5.30 | – | – | –
4 | CCn1c(-c2cccnc2[C@H](C)OC)c2c3cc(ccc31)-c1csc(n1)C[C@H](NC(=O)[C@H](C1CCCC1)N(C)C(=O)CN(C)C(=O)[C@H]1CN1)C(=O)N1CCC[C@H](N1)C(=O)OCC(C)(C)C2 [Compound 132] | – | – | – | 7.00 to 8.00 | 5.00 to 6.00 | > 5.30
5 | CCn1c(-c2cccnc2[C@H](C)OC)c2c3cc(ccc31)-c1cc(O)cc(c1)C[C@H](NC(=O)[C@H](C(C)C)N(C)C(=O)CN(C)C(=O)[C@@H]1CN1CCCOC)C(=O)N1CCC[C@H](N1)C(=O)OCC(C)(C)C2 (stereo partly drawn) [Compound 137] | > 8.00 | 6.00 to 7.00 | > 5.30 | – | – | –
6 | CCn1c(-c2cccnc2[C@H](C)OC)c2c3cc(ccc31)-c1cc(O)cc(c1)C[C@H](NC(=O)[C@H](C(C)C)N(C)C(=O)CNC(=O)[C@@H]1N[C@@H]1C1CC1)C(=O)N1CCC[C@H](N1)C(=O)OCC(C)(C)C2 [Compound 141] | 6.00 to 7.00 | 6.00 to 7.00 | > 5.30 | – | – | –
7 | CCn1c(-c2cccnc2[C@H](C)OC)c2c3cc(ccc31)-c1cc(O)cc(c1)C[C@H](NC(=O)[C@H](C(C)C)N(C)C(=O)CN(C)C(=O)[C@H]1CN1C(C)C)C(=O)N1CCC[C@H](N1)C(=O)OCC(C)(C)C2 (stereo partly drawn) [Compound 142] | > 8.00 | 6.00 to 7.00 | > 5.30 | – | – | –
8 | CCn1c(-c2cccnc2[C@H](C)OC)c2c3cc(ccc31)-c1cc(O)cc(c1)C[C@H](NC(=O)[C@H](C(C)C)N1CC[C@]3(CCN(C(=O)[C@H]4CN4)C3)C1=O)C(=O)N1CCC[C@H](N1)C(=O)OCC(C)(C)C2 [Compound 146] | – | – | – | > 8.00 | 6.00 to 7.00 | > 5.30
9 | CCn1c(-c2cccnc2[C@H](C)OC)c2c3cc(ccc31)-c1cc(O)cc(c1)C[C@H](NC(=O)[C@H](C(C)C)N(C)C(=O)CN(C)C(=O)[C@H]1CN1Cc1ccccc1F)C(=O)N1CCC[C@H](N1)C(=O)OCC(C)(C)C2 (stereo partly drawn) [Compound 155] | > 8.00 | 6.00 to 7.00 | > 5.30 | – | – | –
10 | CCn1c(-c2cccnc2[C@H](C)OC)c2c3cc(ccc31)-c1cc(O)cc(c1)C[C@H](NC(=O)[C@H](C(C)C)N(C)C(=O)CN(C)C(=O)[C@H]1CN1Cc1ccccc1CO)C(=O)N1CCC[C@H](N1)C(=O)OCC(C)(C)C2 (stereo partly drawn) [Compound 156] | > 8.00 | 6.00 to 7.00 | > 5.30 | – | – | –
11 | CCn1c(-c2cccnc2[C@H](C)OC)c2c3cc(ccc31)-c1cc(O)cc(c1)C[C@H](NC(=O)[C@H](C(C)C)N(C)C(=O)CN(C)C(=O)[C@@H]1CN1CCOC)C(=O)N1CCC[C@H](N1)C(=O)OCC(C)(C)C2 (stereo partly drawn) [Compound 160] | > 8.00 | 6.00 to 7.00 | > 5.30 | – | – | –
12 | CCn1c(-c2cccnc2[C@H](C)OC)c2c3cc(ccc31)-c1cc(O)cc(c1)C[C@H](NC(=O)[C@H](C(C)C)N(C)C(=O)[C@H]1CCCN(C(=O)[C@H]3CN3)C1)C(=O)N1CCC[C@H](N1)C(=O)OCC(C)(C)C2 [Compound 165] | – | – | – | > 8.00 | 5.00 to 6.00 | > 5.30
13 | CCn1c(-c2cccnc2[C@H](C)OC)c2c3cc(ccc31)-c1csc(n1)C[C@H](NC(=O)[C@H](C(C)C)N(C)C(=O)N1CCN(C(=O)[C@@H]3CN3)CC1)C(=O)N1CCC[C@H](N1)C(=O)OCC(C)(C)C2 [Compound 168] | – | – | – | 7.00 to 8.00 | 6.00 to 7.00 | > 5.30
14 | CCn1c(-c2cccnc2[C@H](C)OC)c2c3cc(ccc31)-c1csc(n1)C[C@H](NC(=O)[C@H](C(C)C)N(C)C(=O)N1CCN(C(=O)[C@H]3CN3)CC1)C(=O)N1CCC[C@H](N1)C(=O)OCC(C)(C)C2 [Compound 169] | – | – | – | 7.00 to 8.00 | 6.00 to 7.00 | > 5.30
15 | CCn1c(-c2cccnc2[C@H](C)OC)c2c3cc(ccc31)-c1cc(O)cc(c1)C[C@H](NC(=O)[C@H](C1CCCC1)N(C)C(=O)CN(C)C(=O)[C@@H]1N[C@@H]1C1CC1)C(=O)N1CCC[C@H](N1)C(=O)OCC(C)(C)C2 [Compound 170] | – | – | – | 7.00 to 8.00 | 7.00 to 8.00 | > 5.30
16 | CCn1c(-c2cccnc2[C@H](C)OC)c2c3cc(ccc31)-c1cc(O)cc(c1)C[C@H](NC(=O)[C@H](C(C)C)N(C)C(=O)[C@@]1(F)CCN(C(=O)[C@H]3CN3)C1)C(=O)N1CCC[C@H](N1)C(=O)OCC(C)(C)C2 [Compound 171] | – | – | – | > 8.00 | 6.00 to 7.00 | > 5.30
17 | CCn1c(-c2cccnc2[C@H](C)OC)c2c3cc(ccc31)-c1cc(O)cc(c1)C[C@H](NC(=O)[C@H](C1CCCC1)N1CC[C@@]3(CCN(C(=O)[C@H]4CN4)C3)C1=O)C(=O)N1CCC[C@H](N1)C(=O)OCC(C)(C)C2 [Compound 174] | – | – | – | > 8.00 | 6.00 to 7.00 | > 5.30
18 | CCn1c(-c2cccnc2[C@H](C)OC)c2c3cc(ccc31)-c1cc(O)cc(c1)C[C@H](NC(=O)[C@H](C(C)C)N(C)C(=O)[C@@H]1CCN(C(=O)[C@H]3CN3)C1)C(=O)N1CCC[C@H](N1)C(=O)OCC(C)(C)C2 [Compound 186] | – | – | – | > 8.00 | 6.00 to 7.00 | > 5.30
19 | CCn1c(-c2cccnc2[C@H](C)OC)c2c3cc(ccc31)-c1cc(O)cc(c1)C[C@H](NC(=O)[C@H](C(C)C)N(C)C(=O)CN(C)C(=O)[C@H]1CN1CCCOC)C(=O)N1CCC[C@H](N1)C(=O)OCC(C)(C)C2 (stereo partly drawn) [Compound 201] | > 8.00 | 6.00 to 7.00 | > 5.30 | – | – | –
20 | CCn1c(-c2cccnc2[C@H](C)OC)c2c3cc(ccc31)-c1cc(O)cc(c1)C[C@H](NC(=O)[C@H](C(C)C)N(C)C(=O)C13CCC(CC1)N3C(=O)[C@H]1CN1)C(=O)N1CCC[C@H](N1)C(=O)OCC(C)(C)C2 [Compound 202] | – | – | – | 6.00 to 7.00 | 5.00 to 6.00 | > 5.30
21 | CCn1c(-c2cccnc2[C@H](C)OC)c2c3cc(ccc31)-c1cc(O)cc(c1)C[C@H](NC(=O)[C@H](C(C)C)N(C)C(=O)[C@@H]1CCN(C(=O)[C@H]3CN3)[C@@H]1C)C(=O)N1CCC[C@H](N1)C(=O)OCC(C)(C)C2 [Compound 207] | – | – | – | > 8.00 | 6.00 to 7.00 | > 5.30
22 | CCn1c(-c2cccnc2[C@H](C)OC)c2c3cc(ccc31)-c1cc(O)cc(c1)C[C@H](NC(=O)[C@H](C(C)C)N(C)C(=O)[C@@H]1CCN(C(=O)[C@@H]3CN3)[C@@H]1C)C(=O)N1CCC[C@H](N1)C(=O)OCC(C)(C)C2 [Compound 208] | – | – | – | 7.00 to 8.00 | 5.00 to 6.00 | > 5.30
23 | CCn1c(-c2cccnc2[C@H](C)OC)c2c3cc(ccc31)-c1csc(n1)C[C@H](NC(=O)[C@H](C1CCCC1)N(C)C(=O)CN(C)C(=O)[C@@H]1N[C@@H]1C1CC1)C(=O)N1CCC[C@H](N1)C(=O)OCC(C)(C)C2 [Compound 210] | – | – | – | 6.00 to 7.00 | 6.00 to 7.00 | > 5.30
24 | CCn1c(-c2cccnc2[C@H](C)OC)c2c3cc(ccc31)-c1csc(n1)C[C@H](NC(=O)[C@H](C(C)C)N(C)C(=O)N(C)CCN(C)C(=O)[C@H]1CN1)C(=O)N1CCC[C@H](N1)C(=O)OCC(C)(C)C2 [Compound 216] | – | – | – | 7.00 to 8.00 | 6.00 to 7.00 | > 5.30
